These results are taken from patent US10556888B2, “Pyrazole compounds or salts thereof, preparation methods therefor, herbicidal compositions and use thereof” (QINGDAO KINGAGROOT CHEMICAL COMPOUNDS CO., LTD, priority 2015, dated 2020).

Assay type in all cases: in vivo
One data set has as its system Monochoria vaginalis. As to the kind of experiment: Weed control effect evaluation in transplanted rice field. The following applies: transplanted rice field pot test, 14 days after treatment. More on the design: key: Level 10: completely dead; Level 9: above 90% growth inhibition rate; Level 8: above 80% growth inhibition rate; Level 7: above 70% growth inhibition rate; Level 6: above 60% growth inhibition rate; Level 5: above 50% growth inhibition rate; Level 4: above 30% growth inhibition rate; Level 3: above 20% growth inhibition rate; Level 2: above 10% growth inhibition rate; Level 1: above 1-10% growth inhibition rate; Level 0: no effect. How it is done: (§1) Rice field soil was loaded into a 1/1,000,000 ha pot. The seeds of Echinochloa, Scirpus juncoides, Bidens tripartite and Sagittaria trifolia were sowed and gently covered with soil, then left to stand still in greenhouse in the state of 0.5-1 cm of water storage. The tuber of Sagittaria trifolia was planted in the next day or 2 days later. It was kept at 3-4 cm of water storage thereafter. The weeds were treated by dripping the WP or SC water diluents prepared according to the common preparation method of the compounds of the present invention with pipette homogeneously to achieve specified effective amount when Echinochloa, Scirpus juncoides and Bidens tripartite reached 0.5 leaf stage and Sagittaria trifolia reached the time point of primary leaf stage.
(§2) The fertility condition of Echinochloa, Scirpus juncoides, Bidens tripartite and Sagittaria trifolia 14 days after the treatment of the compound of the invention and the fertility condition of rice 21 days after the treatment of the compound of the invention respectively with the naked eye.
(§3) The seeds of Echinochloa crus-galli, Scirpus juncoides and Monochoria vaginalis were collected from Heilongjing and Jiangsu Province of China.

The test system of another data set is Echinochloa crus-galli. The data set is described as above. More on the design: key: Level 10: completely dead; Level 9: above 90% growth inhibition rate; Level 8: above 80% growth inhibition rate; Level 7: above 70% growth inhibition rate; Level 6: above 60% growth inhibition rate; Level 5: above 50% growth inhibition rate; Level 4: above 30% growth inhibition rate; Level 3: above 20% growth inhibition rate; Level 2: above 10% growth inhibition rate; Level 1: above 1-10% growth inhibition rate; Level 0: no effect. The following applies: transplanted rice field pot test, 14 days after treatment. The method, then:
as §1, §2, §3

For another data set, the system named is Scirpus juncoides. The data set is described as above. More on the design: key: Level 10: completely dead; Level 9: above 90% growth inhibition rate; Level 8: above 80% growth inhibition rate; Level 7: above 70% growth inhibition rate; Level 6: above 60% growth inhibition rate; Level 5: above 50% growth inhibition rate; Level 4: above 30% growth inhibition rate; Level 3: above 20% growth inhibition rate; Level 2: above 10% growth inhibition rate; Level 1: above 1-10% growth inhibition rate; Level 0: no effect. To be noted: transplanted rice field pot test, 14 days after treatment. The method, then: as §1, §2, §3

The subject of data set [1] is main crop (wheat, corn, rice, soybean, cotton, oilseed, millet and sorghum). As to the kind of experiment: Post-emergence test experiment, main crops (Table 2). More on the design: key: Level 10: completely dead; Level 9: above 90% growth inhibition rate; Level 8: above 80% growth inhibition rate; Level 7: above 70% growth inhibition rate; Level 6: above 60% growth inhibition rate; Level 5: above 50% growth inhibition rate; Level 4: above 30% growth inhibition rate; Level 3: above 20% growth inhibition rate; Level 2: above 10% growth inhibition rate; Level 1: above 1-10% growth inhibition rate; Level 0: no effect. The following applies: 3 weeks after spraying, greenhouse. In a few lines:
(§4)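 Weed and crop seeds (wheat, corn, rice, soybean, cotton, oilseed, millet, sorghum) grown in soil in greenhouse; sprayed at 2-3 leaf stage, 2-3 weeks after sowing, with compound in acetone/Tween 80/water. Effects assessed after 3 weeks further greenhouse culture.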

The subject of the next data set is Rice. As to the kind of experiment: Transplanted rice safety evaluation. More on the design: key: Level 10: completely dead; Level 9: above 90% growth inhibition rate; Level 8: above 80% growth inhibition rate; Level 7: above 70% growth inhibition rate; Level 6: above 60% growth inhibition rate; Level 5: above 50% growth inhibition rate; Level 4: above 30% growth inhibition rate; Level 3: above 20% growth inhibition rate; Level 2: above 10% growth inhibition rate; Level 1: above 1-10% growth inhibition rate; Level 0: no effect. The following applies: transplanted 3 leaf stage japonica rice, 21 days after treatment. How it is done:
In addition, the rice field soil that loaded into the 1/1,000,000 ha pot was leveled to keep water storage at 3-4 cm depth. The 3 leaf stage rice (japonica rice) was transplanted at 3 cm of transplanting depth the next day. The compound of the present invention was treated by the same way after 5 days of transplantation. The fertility condition of Echinochloa, Scirpus juncoides, Bidens tripartite and Sagittaria trifolia 14 days after the treatment of the compound of the invention and the fertility condition of rice 21 days after the treatment of the compound of the invention respectively with the naked eye.

Data set [2] concerns Monocotyledonous and dicotyledonous weed. The experiment in a line: Post-emergence test experiment, weed control effect (Table 2). Details: key to weed control effect, Setaria viridis (level) / weed control effect, Rorippa indica (level) / weed control effect, Abutilon theophrasti (level) / weed control effect, Echinochloa crus-galli (level) / weed control effect, Digitaria sanguinalis (level): Level 10: completely dead; Level 9: above 90% growth inhibition rate; Level 8: above 80% growth inhibition rate; Level 7: above 70% growth inhibition rate; Level 6: above 60% growth inhibition rate; Level 5: above 50% growth inhibition rate; Level 4: above 30% growth inhibition rate; Level 3: above 20% growth inhibition rate; Level 2: above 10% growth inhibition rate; Level 1: above 1-10% growth inhibition rate; Level 0: no effect. The following applies: 3 weeks after spraying, greenhouse. In a few lines: as §4

As for `Cc1ccn(Cc2c(S(C)(=O)=O)ccc(C(=O)c3c(C)nn(C)c3OC(=O)c3cn(C)nc3C)c2Cl)n1` [Compound 02], in the data set with Monochoria vaginalis (application rate 500 g/ha), the “Weed control effect, Monochoria vaginalis (activity level)” value is given as 9 (Level 9: above 90% growth inhibition rate). In addition, in the data set with Echinochloa crus-galli (application rate 500 g/ha), the “Weed control effect, Echinochloa crus-galli (activity level)” value amounted to 10. For the same compound, the “Weed control effect, Scirpus juncoides (activity level)” value (shortened to “Weed control effect, Scirpus juncoides”) with Scirpus juncoides (application rate 500 g/ha) came to 10. Moreover, in data set [1] (120 g/ha), the “effect on crop, corn (level)” value came to 0; the “effect on crop, rice (level)” value is given as 1 (Level 1: above 1-10% growth inhibition rate); the “effect on crop, wheat (level)” value was found to be 0. For the same compound, the “Rice (safety, activity level)” value with Rice (application rate 500 g/ha) is recorded as 0. In data set [2] (120 g/ha), the “weed control effect, Abutilon theophrasti (level)” value is 8 (Level 8: above 80% growth inhibition rate); the “weed control effect, Bidens pilosa (level)” value is reported as 9 (Level 9: above 90% growth inhibition rate); the “weed control effect, Digitaria sanguinalis (level)” value is 2 (Level 2: above 10% growth inhibition rate); the “weed control effect, Echinochloa crus-galli (level)” value was 10. For the same compound, in data set [2] (120 g/ha), the “weed control effect, Rorippa indica (level)” value worked out at 10 and the “weed control effect, Setaria viridis (level)” value is 6 (Level 6: above 60% growth inhibition rate).

For `Cc1ccn(Cc2c(S(C)(=O)=O)ccc(C(=O)c3cnn(C)c3OC(=O)c3cn(C)nc3C)c2Cl)n1` [Compound 06], in the data set on Monochoria vaginalis (application rate 500 g/ha), the “Weed control effect, Monochoria vaginalis (activity level)” value was determined as 10. For the same compound, in the data set on Echinochloa crus-galli (application rate 500 g/ha), the “Weed control effect, Echinochloa crus-galli (activity level)” value was found to be 10. For the same compound, the “Weed control effect, Scirpus juncoides” value in the data set on Scirpus juncoides (application rate 500 g/ha) came to 10. In data set [1] (120 g/ha), the “effect on crop, corn (level)” value is recorded as 0; the “effect on crop, rice (level)” value was 1 (Level 1: above 1-10% growth inhibition rate); the “effect on crop, wheat (level)” value is recorded as 0. For the same compound, the “Rice (safety, activity level)” value with Rice (application rate 500 g/ha) is 1 (Level 1: above 1-10% growth inhibition rate). Besides, in data set [2] (120 g/ha), the “weed control effect, Abutilon theophrasti (level)” value is 7 (Level 7: above 70% growth inhibition rate); the “weed control effect, Bidens pilosa (level)” value is 9 (Level 9: above 90% growth inhibition rate); the “weed control effect, Digitaria sanguinalis (level)” value is 2 (Level 2: above 10% growth inhibition rate); the “weed control effect, Echinochloa crus-galli (level)” value is recorded as 10. In data set [2] (120 g/ha), the “weed control effect, Rorippa indica (level)” value was found to be 10 and the “weed control effect, Setaria viridis (level)” value was 6 (Level 6: above 60% growth inhibition rate).

Turning to `Cc1nn(C)cc1C(=O)Oc1c(C(=O)c2ccc(S(C)(=O)=O)c(Cn3cc(Cl)cn3)c2Cl)c(C2CC2)nn1C` [Compound 10], the “Weed control effect, Monochoria vaginalis (activity level)” value in the data set with Monochoria vaginalis (application rate 500 g/ha) came to 10. In the data set on Echinochloa crus-galli (application rate 500 g/ha), the “Weed control effect, Echinochloa crus-galli (activity level)” value is on record as 10. In the data set on Scirpus juncoides (application rate 500 g/ha), the “Weed control effect, Scirpus juncoides” value was 10. In data set [1] (120 g/ha), the “effect on crop, corn (level)” value is on record as 0; the “effect on crop, rice (level)” value is on record as 1 (Level 1: above 1-10% growth inhibition rate); the “effect on crop, wheat (level)” value was determined as 0. The “Rice (safety, activity level)” value in the data set with Rice (application rate 500 g/ha) was 1 (Level 1: above 1-10% growth inhibition rate). For the same compound, in data set [2] (120 g/ha), the “weed control effect, Abutilon theophrasti (level)” value is given as 7 (Level 7: above 70% growth inhibition rate); the “weed control effect, Bidens pilosa (level)” value is recorded as 9 (Level 9: above 90% growth inhibition rate); the “weed control effect, Digitaria sanguinalis (level)” value was 2 (Level 2: above 10% growth inhibition rate); the “weed control effect, Echinochloa crus-galli (level)” value amounted to 10. Further, in data set [2] (120 g/ha), the “weed control effect, Rorippa indica (level)” value came out at 10 and the “weed control effect, Setaria viridis (level)” value is given as 7 (Level 7: above 70% growth inhibition rate).

Consider `CCOc1c(C(=O)Oc2c(C(=O)c3ccc(S(C)(=O)=O)c(Cn4ccc(C)n4)c3Cl)cnn2C)cnn1C` [Compound 24], for which the “Weed control effect, Monochoria vaginalis (activity level)” value in the data set with Monochoria vaginalis (application rate 60 g/ha) was 9 (Level 9: above 90% growth inhibition rate). Also, in the data set on Echinochloa crus-galli (application rate 60 g/ha), the “Weed control effect, Echinochloa crus-galli (activity level)” value came out at 10. In addition, the “Weed control effect, Scirpus juncoides” value in the data set on Scirpus juncoides (application rate 60 g/ha) came out at 10. In data set [1] (120 g/ha), the “effect on crop, corn (level)” value was found to be 0; the “effect on crop, rice (level)” value was determined as 0; the “effect on crop, wheat (level)” value is given as 0. Also, in the data set on Rice (application rate 60 g/ha), the “Rice (safety, activity level)” value is 1 (Level 1: above 1-10% growth inhibition rate). In data set [2] (120 g/ha), the “weed control effect, Abutilon theophrasti (level)” value is 6 (Level 6: above 60% growth inhibition rate); the “weed control effect, Bidens pilosa (level)” value is recorded as 6 (Level 6: above 60% growth inhibition rate); the “weed control effect, Digitaria sanguinalis (level)” value was 1 (Level 1: above 1-10% growth inhibition rate); the “weed control effect, Echinochloa crus-galli (level)” value is recorded as 9 (Level 9: above 90% growth inhibition rate). In addition, in data set [2] (120 g/ha), the “weed control effect, Rorippa indica (level)” value was 4 (Level 4: above 30% growth inhibition rate) and the “weed control effect, Setaria viridis (level)” value was 2 (Level 2: above 10% growth inhibition rate).

`COCC(C)OCc1c(S(C)(=O)=O)ccc(C(=O)c2c(C)nn(C)c2OC(=O)c2cn(C)nc2C)c1Cl` (centres unmarked) [Compound 36]: in the data set with Monochoria vaginalis (application rate 60 g/ha), the “Weed control effect, Monochoria vaginalis (activity level)” value came to 10. Moreover, in the data set with Echinochloa crus-galli (application rate 60 g/ha), the “Weed control effect, Echinochloa crus-galli (activity level)” value was 9 (Level 9: above 90% growth inhibition rate). Moreover, in the data set with Scirpus juncoides (application rate 60 g/ha), the “Weed control effect, Scirpus juncoides” value is given as 10. For the same compound, in data set [1] (60 g/ha), the “effect on crop, corn (level)” value came out at 0; the “effect on crop, rice (level)” value is 1 (Level 1: above 1-10% growth inhibition rate); the “effect on crop, wheat (level)” value is given as 0. The “Rice (safety, activity level)” value in the data set with Rice (application rate 60 g/ha) is given as 0. In data set [2] (60 g/ha), the “weed control effect, Abutilon theophrasti (level)” value is 10; the “weed control effect, Bidens pilosa (level)” value was 8 (Level 8: above 80% growth inhibition rate); the “weed control effect, Digitaria sanguinalis (level)” value stood at 10; the “weed control effect, Echinochloa crus-galli (level)” value is recorded as 10. Also, in data set [2] (60 g/ha), the “weed control effect, Rorippa indica (level)” value is 10 and the “weed control effect, Setaria viridis (level)” value is 7 (Level 7: above 70% growth inhibition rate).

Consider `CCc1nn(C)c(C(=O)Oc2c(C(=O)c3ccc(S(C)(=O)=O)c(Cn4cccn4)c3Cl)c(C)nn2C(C)C)c1Cl` [Compound 106], for which, in data set [1] (60 g/ha), the “effect on crop, corn (level)” value worked out at 0; the “effect on crop, rice (level)” value is on record as 1 (Level 1: above 1-10% growth inhibition rate); the “effect on crop, wheat (level)” value is 0. In addition, in data set [2] (60 g/ha), the “weed control effect, Abutilon theophrasti (level)” value worked out at 10; the “weed control effect, Bidens pilosa (level)” value is 8 (Level 8: above 80% growth inhibition rate); the “weed control effect, Digitaria sanguinalis (level)” value is recorded as 8 (Level 8: above 80% growth inhibition rate); the “weed control effect, Echinochloa crus-galli (level)” value is 10. In data set [2] (60 g/ha), the “weed control effect, Rorippa indica (level)” value came to 10 and the “weed control effect, Setaria viridis (level)” value was determined as 10.
